Results as given in patent US10981904B2, “1,3,4-thiadiazole compounds and their use in treating cancer” (Cancer Research Technology Limited, priority 2015, dated 2021).

Test system: NCI-H1703 cells
Test: GLS Cell Proliferation Assay (NCI-H1703 cell proliferation)
Format: cell-based
Conditions: Homo sapiens, NCI-H1703, 120 h, NCI-H1703 cells, 5 days; read-out: Assay c) Prolif Mean IC50
Description: The following assays were used to measure the effects of the compounds described herein: a) GLS Enzyme Potency Assay; b) GLS Cell Potency Assay; c) GLS Cell Proliferation Assay. During the description of the assays, generally: • i. The following abbreviations have been used: CO2=Carbon dioxide; DMEM=Dulbecco's Modified Eagle Medium; DMSO=Dimethyl sulphoxide; EDTA=Ethylenediaminetetraacetic acid; EGTA=Ethylene glycol tetraacetic acid; FCS=Foetal calf serum; h=Hour(s); NBS=Non-binding surface; SDS=Sodium dodecyl sulphate; TRIS=Tris(Hydroxymethyl)aminomethane. • ii. IC50 values were calculated using a smart fitting model in Genedata.
Assay c): GLS Cell Proliferation Assay
The ability of compounds to inhibit cell growth was measured using a 384 well plate NCI-H1703 cell proliferation assay. NCI-H1703 cells were grown in phenol red free RPMI1640, 10% FCS and 2 mM glutamine and seeded at a density of 750 cells per well in 40 μl of growth medium into clear-bottom 384 well assay plates (Corning product code 3712) and incubated for 24 h at 37° C., 5% CO2. […] DMSO concentration was maintained at 0.3% by back filling with DMSO solution. Plates were incubated for 5 days at 37° C., 5% CO2, Sytox Green and Saponin added to final concentration of 2 μM and 0.25% respectively and incubated for 6 h prior to analysis. […] IC50 values were calculated by curve fitting to max inhibition of day zero growth using GeneData software analysis.

SMILES | IC50
COC1CN(c2cccc([C@H](OC)C(=O)Nc3nnc(N[C@@H]4CCN(c5cccnn5)C4)s3)c2)C1 (single isomer, unassigned) [3(b)] | 272 nM
COc1cc(OC)cc([C@H](OC)C(=O)Nc2nnc(N[C@@H]3CCN(c4ccc(C)nn4)C3)s2)c1 (single isomer, unassigned) [4(b)] | 27.3 nM
CO[C@H](C(=O)Nc1nnc(N[C@@H]2CCN(c3cccnn3)C2)s1)c1ccc(F)c(N2CC(F)C2)c1 (single isomer, unassigned) [8(b)] | 38.5 nM
CO[C@H](C(=O)Nc1nnc(N[C@@H]2CCN(c3cccnn3)C2)s1)c1cccc(C2COC2)c1 (single isomer, unassigned) [18(b)] | 699 nM
COC[C@H](C(=O)Nc1nnc(N[C@@H]2CCN(c3ccc(C)nn3)C2)s1)c1ccccc1 (single isomer, unassigned) [45(b)] | 9.22 nM
CO[C@H](C(=O)Nc1nnc(N[C@@H]2CCN(c3cccnn3)C2)s1)c1cccc(N2CC(F)C2)c1 (single isomer, unassigned) [Example 1(a)] | 2.55 nM
CO[C@H](C(=O)Nc1nnc(N[C@@H]2CCN(c3cccnn3)C2)s1)c1cccc(N2CC(F)C2)c1 (single isomer, unassigned) [Example 1(b)] | 133 nM
COC1CN(c2cccc([C@H](OC)C(=O)Nc3nnc(N[C@@H]4CCN(c5cccnn5)C4)s3)c2)C1 (single isomer, unassigned) [Example 3(a)] | 2.65 nM
COc1cc(OC)cc([C@H](OC)C(=O)Nc2nnc(N[C@@H]3CCN(c4ccc(C)nn4)C3)s2)c1 (single isomer, unassigned) [Example 4(a)] | 2.95 nM
COC(C(=O)Nc1nnc(N[C@@H]2CCN(c3cccnn3)C2)s1)c1cccc(C2COC2)c1 (single isomer, unassigned) [Example 18(a)] | 13.5 nM
COCC(C(=O)Nc1nnc(N[C@@H]2CCN(c3ccc(C)nn3)C2)s1)c1ccccc1 (single isomer, unassigned) [Example 45(a)] | 2270 nM
COC(C(=O)Nc1nnc(N[C@@H]2CCN(c3ccc(F)nn3)C2)s1)c1cccc(N2CC(F)(F)C2)c1 (stereo partly drawn) [Example 42, 2-[3-(3,3-difluoroazetidin-1-yl)phenyl]-N-[5-[[(3R)-1-(6-fluoropyridazin-3-yl)pyrrolidin-3-yl]amino]-1,3,4-thiadiazol-2-yl]-2-methoxy-acetamide] | 81.5 nM
